This is an account of results in patent US20140023611A1 (priority 2010, published 2014).

One series addresses T1, rat NaP2b (SLC34A2) (Rattus norvegicus, UniProt Q9JJ09).
T1 construct: host or cells: HEK293
T1 sequence (Q9JJ09 1-695): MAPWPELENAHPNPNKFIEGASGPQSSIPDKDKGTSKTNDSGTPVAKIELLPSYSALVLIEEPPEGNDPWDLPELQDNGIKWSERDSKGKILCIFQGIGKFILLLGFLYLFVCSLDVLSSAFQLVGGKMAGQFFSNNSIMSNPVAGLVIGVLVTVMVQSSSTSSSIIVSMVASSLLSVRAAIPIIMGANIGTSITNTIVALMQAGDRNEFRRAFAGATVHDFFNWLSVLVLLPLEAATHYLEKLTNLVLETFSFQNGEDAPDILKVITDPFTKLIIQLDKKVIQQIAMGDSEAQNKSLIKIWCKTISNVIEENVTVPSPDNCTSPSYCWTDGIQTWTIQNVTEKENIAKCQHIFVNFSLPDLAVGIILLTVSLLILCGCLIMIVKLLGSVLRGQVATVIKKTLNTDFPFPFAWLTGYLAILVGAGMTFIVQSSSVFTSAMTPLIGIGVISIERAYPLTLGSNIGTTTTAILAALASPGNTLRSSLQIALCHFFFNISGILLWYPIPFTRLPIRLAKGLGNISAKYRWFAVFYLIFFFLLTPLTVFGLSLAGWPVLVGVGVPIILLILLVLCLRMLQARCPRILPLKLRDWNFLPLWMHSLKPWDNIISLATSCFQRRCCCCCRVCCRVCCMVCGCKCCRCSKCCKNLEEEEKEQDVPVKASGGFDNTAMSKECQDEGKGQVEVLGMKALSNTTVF
As to the kind of experiment: Inhibition of NaP2b-mediated Pi (33P) uptake in transfected HEK293 cells, rat NaP2b. It counts as cell-based. Conditions: 33P Pi uptake, 0.1 mM phosphate, value given as pIC50 range. Summed up:
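The cells transiently expressed NaP2b after Lipofectamine transfection. Each compound was run in duplicate over twelve concentrations, 0.1 nM–30 uM.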

The next series concerns the target T2, human NaP2b (SLC34A2) (Homo sapiens, UniProt O95436).
T2 construct: host or cells: HEK293
T2 sequence (O95436 1-690): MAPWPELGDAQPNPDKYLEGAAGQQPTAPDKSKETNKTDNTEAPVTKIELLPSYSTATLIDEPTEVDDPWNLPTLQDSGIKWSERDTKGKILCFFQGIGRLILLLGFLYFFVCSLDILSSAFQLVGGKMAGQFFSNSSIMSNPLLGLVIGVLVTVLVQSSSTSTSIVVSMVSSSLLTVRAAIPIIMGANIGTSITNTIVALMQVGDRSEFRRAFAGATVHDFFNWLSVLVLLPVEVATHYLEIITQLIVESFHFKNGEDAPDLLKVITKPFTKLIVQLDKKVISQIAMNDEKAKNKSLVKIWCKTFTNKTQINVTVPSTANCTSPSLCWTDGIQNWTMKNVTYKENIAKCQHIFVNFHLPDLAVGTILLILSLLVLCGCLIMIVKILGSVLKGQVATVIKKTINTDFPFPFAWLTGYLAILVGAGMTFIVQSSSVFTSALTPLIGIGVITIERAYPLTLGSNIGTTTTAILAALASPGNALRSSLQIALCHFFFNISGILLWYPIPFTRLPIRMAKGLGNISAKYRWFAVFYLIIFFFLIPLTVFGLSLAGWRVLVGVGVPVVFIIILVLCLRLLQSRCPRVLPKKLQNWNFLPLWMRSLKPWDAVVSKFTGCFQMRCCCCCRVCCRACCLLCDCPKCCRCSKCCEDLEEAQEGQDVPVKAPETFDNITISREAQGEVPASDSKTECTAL
As to the kind of experiment: Inhibition of NaP2b-mediated Pi (33P) uptake in transfected HEK293 cells, human NaP2b. Particulars: for IC50: read-out: pIC50 range for human NaP2b (converted). Type of series: cell-based. The method in brief:
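Uptake of 33P-phosphate (100 uM KH2PO4 carrier, sodium vs choline buffer, pH 7.4) measured after 3-30 min at room temperature, with test compound at twelve concentrations from 0.1 nM to 30 uM in duplicate. Cells were HEK293 transfected with mutated human NaP2b (Thr insertion after 37, N39D) and treated with a PiT-silencing agent. pIC50 values from scintillation counts.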

Series [1] can be described thus: Stability of compounds in simulated gastric fluid (SGF). Particulars: simulated gastric fluid (3 mg/mL pepsin), incubation time 6 hr, relative to t=0. It counts as in vitro ADME. Summed up:
(§1)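 Compounds at […] were incubated 3 or 6 hr in USP simulated gastric fluid with 3 mg/mL pepsin or simulated intestinal fluid with 3 mg/mL pancreatin. Remaining compound was quantified by HPLC-UV or HPLC-MS peak area % and reported as percent of the t=0 level in the same medium.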

The nature of series [2]: Stability of compounds in simulated intestinal fluid (SIF). It counts as in vitro ADME. Particulars: simulated intestinal fluid (3 mg/mL pancreatin), incubation time 6 hr, relative to t=0. Summed up:
as §1

Series [3] in a line: Determination of compound Cmax and AUC after oral gavage (plasma LC-MS/MS). It counts as in vivo, Sprague-Dawley rats. Conditions: Sprague-Dawley, rat, plasma, po, Structure (I) examples, Table 15, actual oral dose 3-15 mg/kg, plasma 0.5-4 h. Summed up: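 Plasma exposure measured by LC-MS/MS after acetonitrile precipitation with internal standard, quantified against a standard curve made in plasma. Compound given orally by gavage to Sprague-Dawley rats at nominal 2.5 or 10 mg/kg, with K2EDTA plasma sampled at 0.5, 1, 2 and 4 h.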

In the case of “1-(3-(4-(diethylamino)-2-(4-(3-(trifluoromethyl)benzylcarbamoyl)pyridin-2-yl)phenylcarbamoyl)phenyl)-2,5,8,11,14,17-hexaoxanonadecan-19-yl 2,5,8,11,14,17,20-heptaoxadocosan-22-ylcarbamate [Example 174]”, the “pIC50 range for rat Nap2b” value against rat NaP2b (SLC34A2) is given as 5.1-6.0. The “pIC50 range for human NaP2b” value at human NaP2b (SLC34A2) (33P Pi uptake, transfected HEK293 cells, 0.1 mM phosphate, value given as pIC50 range) is recorded as greater than 6.0. In addition, the “% remaining, SGF” value in series [1] is on record as greater than 80%. In addition, the “% remaining, SIF” value in series [2] was greater than 80%.
Take `O=C(O)c1cccc(SCc2cccc(C(=O)Nc3ccc(Cl)cc3-c3cc(C(=O)NCc4cccc(C(F)(F)F)c4)ccn3)c2)c1` [Example 8.25, 3-(3-(4-chloro-2-(4-(3-(trifluoromethyl)benzylcarbamoyl)pyridin-2-yl)phenylcarbamoyl)benzylthio)benzoic acid]: the values for the IC50 at rat NaP2b (SLC34A2) and at human NaP2b (SLC34A2) were 1000 to 7940 nM and less than 1000 nM, respectively. Also, the “% remaining, SGF” value in series [1] is greater than 80%. Also, the “% remaining, SIF” value in series [2] is listed as greater than 80%. In series [3], this compound gave an AUC greater than 50 ng·h/mL. Further, the Cmax in series [3] was less than 30 ng/mL.
As for `CCCN(CCC)c1ccc(NC(=O)c2cccc(C(=O)N(C)CCOCCOCCOCCC(=O)O)c2)c(-c2cc(C(=O)NCc3cccc(C(F)(F)F)c3)ccn2)c1` [Example 117], the IC50 against rat NaP2b (SLC34A2) and at human NaP2b (SLC34A2) was 1000 to 7940 nM in each case. The “% remaining, SGF” value in series [1] is reported as greater than 80%. For the same compound, the “% remaining, SIF” value in series [2] is reported as greater than 80%.
On rat NaP2b (SLC34A2), `CN(CCCN1CCOCC1)C(=O)c1cccc(C(=O)Nc2ccc(N3CCCCC3)cc2-c2cc(C(=O)N[C@H]3CCCc4ccccc43)ccn2)c1` [Example 126, (S)—N1-methyl-N1-(3-morpholinopropyl)-N3-(4-(piperidin-1-yl)-2-(4-(1,2,3,4-tetrahydronaphthalen-1-ylcarbamoyl)pyridin-2-yl)phenyl)isophthalamide] had an IC50 of less than 1000 nM. In addition, at human NaP2b (SLC34A2), the IC50 was 1000 to 7940 nM. For the same compound, the “% remaining, SGF” value in series [1] is greater than 80%. The “% remaining, SIF” value in series [2] is recorded as greater than 80%. In series [3], the AUC was less than 30 ng·h/mL and the Cmax is less than 10 ng/mL.
With `CCN(CC)c1ccc(NC(=O)c2cccc(COCCOCCOCCOCCOCCOCCOC(=O)NCCN3CCOCC3)c2)c(-c2cc(C(=O)NCc3cccc(C(F)(F)F)c3)ccn2)c1` [Example 169, 1-(3-(4-(diethylamino)-2-(4-(3-(trifluoromethyl)benzylcarbamoyl)pyridin-2-yl)phenylcarbamoyl)phenyl)-2,5,8,11,14,17-hexaoxanonadecan-19-yl 2-morpholinoethylcarbamate], the IC50 against rat NaP2b (SLC34A2) and on human NaP2b (SLC34A2) was less than 1000 nM throughout. Moreover, the “% remaining, SGF” value in series [1] is listed as greater than 80%. Also, in series [2], the “% remaining, SIF” value is 60-80%.
For the compound `CCN(CC)c1ccc(NC(=O)c2cccc(COCCOCCOCCOCCOCCOCCOC(=O)N(C)CCN3CCOCC3)c2)c(-c2cc(C(=O)NCc3cccc(C(F)(F)F)c3)ccn2)c1` [Example 170, 1-(3-(4-(diethylamino)-2-(4-(3-(trifluoromethyl)benzylcarbamoyl)pyridin-2-yl)phenylcarbamoyl)phenyl)-2,5,8,11,14,17-hexaoxanonadecan-19-yl methyl(2-morpholinoethyl)carbamate], the IC50 is 1000 to 7940 nM at rat NaP2b (SLC34A2) and less than 1000 nM at human NaP2b (SLC34A2). The “% remaining, SGF” value in series [1] is listed as greater than 80%. In addition, the “% remaining, SIF” value in series [2] is recorded as 60-80%.
Regarding `CCN(CC)c1ccc(NC(=O)c2cccc(COCCOCCOCCOCCOCCOCCOC(=O)N3CCC(CCOCCO)CC3)c2)c(-c2cc(C(=O)NCc3cccc(C(F)(F)F)c3)ccn2)c1` [Example 171, 1-(3-(4-(diethylamino)-2-(4-(3-(trifluoromethyl)benzylcarbamoyl)pyridin-2-yl)phenylcarbamoyl)phenyl)-2,5,8,11,14,17-hexaoxanonadecan-19-yl 4-(2-(2-hydroxyethoxy)ethyl)piperidine-1-carboxylate], the IC50 on rat NaP2b (SLC34A2) is 1000 to 7940 nM; on human NaP2b (SLC34A2), less than 1000 nM. Besides, in series [1], the “% remaining, SGF” value was greater than 80%. For the same compound, the “% remaining, SIF” value in series [2] is on record as greater than 80%.
On to `CCN(CC)c1ccc(NC(=O)c2cccc(COCCOCCOCCOCCOCCOCCOC(=O)N(CCO)CCO)c2)c(-c2cc(C(=O)NCc3cccc(C(F)(F)F)c3)ccn2)c1` [Example 172, 1-(3-(4-(diethylamino)-2-(4-(3-(trifluoromethyl)benzylcarbamoyl)pyridin-2-yl)phenylcarbamoyl)phenyl)-2,5,8,11,14,17-hexaoxanonadecan-19-yl bis(2-hydroxyethyl)carbamate], for which the IC50 against rat NaP2b (SLC34A2) was 1000 to 7940 nM; on human NaP2b (SLC34A2), less than 1000 nM. Besides, the “% remaining, SGF” value in series [1] was greater than 80%. Besides, the “% remaining, SIF” value in series [2] is greater than 80%.
Consider `COCCOCCOCCOCCOCCOCCOCCOCCOCc1cccc(C(=O)Nc2ccc(OC3CCC3)cc2-c2cc(C(=O)NCc3cccc(C(F)(F)F)c3)ccn2)c1` [Example 202, 2-(2-(3-(2,5,8,11,14,17,20,23,26-nonaoxaheptacosyl)benzamido)-5-cyclobutoxyphenyl)-N-(3-(trifluoromethyl)benzyl)isonicotinamide], for which the IC50 at rat NaP2b (SLC34A2) was 1000 to 7940 nM; at human NaP2b (SLC34A2), less than 1000 nM. Also, the “% remaining, SGF” value in series [1] is greater than 80%. Also, the “% remaining, SIF” value in series [2] is given as greater than 80%.
Turning to `COCCOCCOCCOCCOCCOCCOCCOCCOCc1cccc(C(=O)Nc2ccc(OC3CCC3)cc2-c2cc(C(=O)N[C@H]3CCCc4ccccc43)ccn2)c1` [Example 205, (S)-2-(2-(3-(2,5,8,11,14,17,20,23,26-nonaoxaheptacosyl)benzamido)-5-cyclobutoxyphenyl)-N-(1,2,3,4-tetrahydronaphthalen-1-yl)isonicotinamide], the IC50 against rat NaP2b (SLC34A2) and on human NaP2b (SLC34A2) was less than 1000 nM in each case. For the same compound, the “% remaining, SGF” value in series [1] was greater than 80%. Moreover, the “% remaining, SIF” value in series [2] is recorded as greater than 80%.
As to `COCCOCCOCCOCCOCCOCCOCCOCCNC(=O)CCOCCOCCOCCOCCCc1cccc(C(=O)Nc2ccc(N3CCCCC3)cc2-c2cc(C(=O)NCc3cccc(C(F)(F)F)c3)ccn2)c1` [Example 275], the IC50 on rat NaP2b (SLC34A2) and on human NaP2b (SLC34A2) was 1000 to 7940 nM in each case. Besides, in series [1], the “% remaining, SGF” value was greater than 80%. In addition, the “% remaining, SIF” value in series [2] is reported as greater than 80%.
Consider `CCN(CC)c1ccc(NC(=O)c2cccc(C(=O)N(C)CCN(CCOC)CCOCCOCCOCCOCCOCCOCCOC)c2)c(-c2cc(C(=O)N[C@H]3CCCc4ccccc43)ccn2)c1` [Example 328, (S)—N1-(4-(diethylamino)-2-(4-(1,2,3,4-tetrahydronaphthalen-1-ylcarbamoyl)pyridin-2-yl)phenyl)-N3-(23-(2-methoxyethyl)-2,5,8,11,14,17,20-heptaoxa-23-azapentacosan-25-yl)-N3-methylisophthalamide], for which the IC50 on rat NaP2b (SLC34A2) and at human NaP2b (SLC34A2) was 1000 to 7940 nM each time. In addition, the “% remaining, SGF” value in series [1] is listed as greater than 80%. In addition, in series [2], the “% remaining, SIF” value is greater than 80%.
